In general, Ki refers to the dissociation constant of the complex between target and ligand, obtained from inhibition or displacement.

In the first experiment the target is GST-tagged-Wee1 kinase (Homo sapiens, UniProt P30291). In words: Wee1 time-resolved fluorescence equilibrium binding assay (displacement of Oregon Green-labeled ATP-competitive kinase probe).
GST-tagged-Wee1 kinase, sequence (P30291 whole entry): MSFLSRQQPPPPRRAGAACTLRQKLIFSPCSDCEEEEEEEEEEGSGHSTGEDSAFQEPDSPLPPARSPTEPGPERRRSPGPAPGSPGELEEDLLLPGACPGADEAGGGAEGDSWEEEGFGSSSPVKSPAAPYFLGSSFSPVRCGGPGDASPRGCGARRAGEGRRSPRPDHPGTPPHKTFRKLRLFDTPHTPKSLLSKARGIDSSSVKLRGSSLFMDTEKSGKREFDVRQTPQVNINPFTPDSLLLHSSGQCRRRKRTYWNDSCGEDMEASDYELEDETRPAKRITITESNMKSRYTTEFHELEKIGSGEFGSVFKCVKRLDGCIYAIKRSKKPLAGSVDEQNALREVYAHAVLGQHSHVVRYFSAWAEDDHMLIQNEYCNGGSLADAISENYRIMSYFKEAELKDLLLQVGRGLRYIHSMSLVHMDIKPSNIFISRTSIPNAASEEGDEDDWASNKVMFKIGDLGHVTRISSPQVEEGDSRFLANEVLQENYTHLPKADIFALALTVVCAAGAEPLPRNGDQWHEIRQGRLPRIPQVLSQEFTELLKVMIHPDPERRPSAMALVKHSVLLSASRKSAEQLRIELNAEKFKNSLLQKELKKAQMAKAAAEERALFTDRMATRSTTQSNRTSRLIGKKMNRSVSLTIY
Details: not given
The protocol: Wee1 kinase was assayed using a time-resolved fluorescence equilibrium binding assay monitoring displacement of a rapidly reversible Oregon Green-labeled ATP-competitive kinase probe (N-(2-(2-(2-(4-(4-(5-chloro-4-(2-(1-hydroxycyclobutyl)thiazol-5-yl)-1H-pyrrolo[2,3-b]pyridin-2-yl)phenyl)piperazin-1-yl)ethoxy)ethoxy)ethyl)-2′,7′-difluoro-3′,6′-dihydroxy-3-oxo-3H-spiro[isobenzofuran-1,9′-xanthene]-5-carboxamide) by competitive Wee1 inhibitors.
For the molecule `Cc1nn(-c2c(Cl)cccc2Cl)c(=O)c2cnc(Nc3ccc4c(c3)CNC4(C)C)nc12` [Example 489, 6-(2,6-dichlorophenyl)-2-[(1,1-dimethyl-2,3-dihydro-1H-isoindol-5-yl)amino]-8-methylpyrimido[4,5-d]pyridazin-5(6H)-one], the inhibition constant Ki amounted to 0.089 nM.

The molecule `CN1CCN(c2ccc(Nc3ncc4c(=O)n(C)nc(CCc5ccccc5)c4n3)cc2)CC1` [Example 6, 6-methyl-2-{[4-(4-methylpiperazin-1-yl)phenyl]amino}-8-(2-phenylethyl)pyrimido[4,5-d]pyridazin-5(6H)-one] came in with a Ki of 680 nM.

Turning to `COc1ccccc1-n1nc(-c2ccc(Cl)cc2Cl)c2nc(Nc3ccc(N4CCN(C)CC4)cc3)ncc2c1=O` [Example 43, 8-(2,4-dichlorophenyl)-6-(2-methoxyphenyl)-2-{[4-(4-methylpiperazin-1-yl)phenyl]amino}pyrimido[4,5-d]pyridazin-5(6H)-one], the affinity, expressed as Ki, was 260 nM.

For `Cc1nn(-c2c(Cl)cccc2Cl)c(=O)c2cnc(Nc3ccc(CN4CCN(C)CC4)cc3)nc12` [Example 454, 6-(2,6-dichlorophenyl)-8-methyl-2-({4-[(4-methylpiperazin-1-yl)methyl]phenyl}amino)pyrimido[4,5-d]pyridazin-5(6H)-one], the Ki is 1.2 nM.

Consider `Cc1nn(-c2c(Cl)cccc2Cl)c(=O)c2cnc(Nc3ccc4c(c3)CCN(C(=O)C(C)(C)O)C4)nc12` [Example 437, 6-(2,6-dichlorophenyl)-2-{[2-(2-hydroxy-2-methylpropanoyl)-1,2,3,4-tetrahydroisoquinolin-6-yl]amino}-8-methylpyrimido[4,5-d]pyridazin-5(6H)-one], for which the Ki came out at 0.8 nM.

`Cc1nn(-c2ncccc2Cl)c(=O)c2cnc(Nc3ccc4c(c3)CNCC43CC3)nc12` [Example 349, 6-(3-chloropyridin-2-yl)-2-(2′,3′-dihydro-1′H-spiro[cyclopropane-1,4′-isoquinolin]-7′-ylamino)-8-methylpyrimido[4,5-d]pyridazin-5(6H)-one] showed a Ki of 0.5 nM.

`Cc1nn(-c2c(Cl)cccc2Cl)c(=O)c2cnc(Nc3ccc4c(c3)CCN(S(C)(=O)=O)C4)nc12` [Example 450, 6-(2,6-dichlorophenyl)-8-methyl-2-{[2-(methylsulfonyl)-1,2,3,4-tetrahydroisoquinolin-6-yl]amino}pyrimido[4,5-d]pyridazin-5(6H)-one] yielded an inhibition constant (Ki) of 0.61 nM.

`Cc1nn(-c2c(Cl)cccc2Cl)c(=O)c2cnc(Nc3ccc4c(c3)CC(N(C)C)C4)nc12` (stereo not shown) [Example 397, 6-(2,6-dichlorophenyl)-2-{[2-(dimethylamino)-2,3-dihydro-1H-inden-5-yl]amino}-8-methylpyrimido[4,5-d]pyridazin-5(6H)-one] yielded an inhibition constant Ki of 1 nM.

In turn, `CN1CCN(c2ccc(Nc3ncc4c(=O)[nH]nc(C5CCCC5)c4n3)cc2)CC1` [Example 14, 8-cyclopentyl-2-{[4-(4-methylpiperazin-1-yl)phenyl]amino}pyrimido[4,5-d]pyridazin-5(6H)-one] gave a Ki of 1100 nM.

As for `Cc1cc(Nc2ncc3c(=O)n(-c4ccccc4C)nc(-c4ccccc4)c3n2)ccc1N1CCCN(C(C)C)CC1` [Example 116, 2-{[4-(4-isopropyl-1,4-diazepan-1-yl)-3-methylphenyl]amino}-6-(2-methylphenyl)-8-phenylpyrimido[4,5-d]pyridazin-5(6H)-one], the Ki amounted to 0.4 nM.

In turn, `Cc1nn(-c2c(Cl)cccc2Cl)c(=O)c2cnc(Nc3ccc(N4CCNCC4)cc3)nc12` [Example 393, 6-(2,6-dichlorophenyl)-8-methyl-2-{[4-(piperazin-1-yl)phenyl]amino}pyrimido[4,5-d]pyridazin-5(6H)-one] yielded a Ki of 1 nM.

The experiment is the same for the next values; noted with them: read-out: Wee-1 inhibition Ki.
As for “6-(2-chlorophenyl)-8-(6-chloropyridin-2-yl)-2-{[4-(4-methylpiperazin-1-yl)phenyl]amino}pyrimido[4,5-d]pyridazin-5(6H)-one [Example 77]”, the Ki is 0.7 nM.

As to “8-(6-chloropyridin-2-yl)-6-(2,6-dichlorophenyl)-2-{[4-(4-methylpiperazin-1-yl)phenyl]amino}pyrimido[4,5-d]pyridazin-5(6H)-one [Example 75]”, the Ki turned out to be 0.08 nM.

(Values after patent publication US8796289B2 (AbbVie Inc., priority 2011, dated 2014).)
